Test results taken from US11008346B2, “Beta-lactamase inhibitors” (priority 2014, dated 2021).

What was measured:
SHV-5 β-lactamase = molecular target: T1, SHV-5 β-lactamase (Klebsiella pneumoniae, UniProt P0A3M1); assay: β-lactamase enzyme inhibition, SHV-5; format: biochemical
T1 construct: made in house; host or cells: E. coli BL21(DE3)
How it was run: (§1)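 Native untagged β-lactamases were expressed in E. coli BL21(DE3) and purified. Enzyme was preincubated with inhibitor for 15 min at 37° C., then substrate hydrolysis was followed: nitrocefin 100 μM for p99 AmpC and OXA-1 (486 nm, 10 min), imipenem for KPC-2 (300 nm), cefotaxime for SHV-5 (260 nm). IC50 was derived from initial rates relative to uninhibited controls.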

p99 AmpC β-lactamase = molecular target: T2, p99 AmpC β-lactamase (Enterobacter cloacae, UniProt P05364); assay: β-lactamase enzyme inhibition, p99 AmpC; format: biochemical
T2 construct: made in house; host or cells: E. coli BL21(DE3)
T2 sequence (P05364 21-381): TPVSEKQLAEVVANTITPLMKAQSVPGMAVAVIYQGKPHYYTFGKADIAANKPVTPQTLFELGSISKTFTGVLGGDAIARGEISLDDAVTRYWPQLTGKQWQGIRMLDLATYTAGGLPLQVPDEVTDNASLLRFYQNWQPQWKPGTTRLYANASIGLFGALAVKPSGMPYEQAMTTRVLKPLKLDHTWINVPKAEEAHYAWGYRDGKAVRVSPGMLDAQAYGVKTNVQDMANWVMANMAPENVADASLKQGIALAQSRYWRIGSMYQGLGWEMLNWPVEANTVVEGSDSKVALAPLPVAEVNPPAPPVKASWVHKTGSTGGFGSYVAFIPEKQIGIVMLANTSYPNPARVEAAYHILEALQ
How it was run: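 Native untagged E. cloacae p99 AmpC was expressed in E. coli BL21(DE3) and purified by cation exchange and gel filtration. Enzyme was preincubated with inhibitor at 37°C for 15 min.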

KPC-2 β-lactamase = molecular target: T3, KPC-2 β-lactamase (Klebsiella pneumoniae, UniProt Q9F663); assay: β-lactamase enzyme inhibition, KPC-2; format: biochemical; details: imipenem substrate, 300 nm; 15 min at 37° C. preincubation; read-out: IC50 KPC-2 (Class A)
T3 construct: made in house; host or cells: E. coli BL21(DE3)
T3 sequence (Q9F663 25-293, looked up): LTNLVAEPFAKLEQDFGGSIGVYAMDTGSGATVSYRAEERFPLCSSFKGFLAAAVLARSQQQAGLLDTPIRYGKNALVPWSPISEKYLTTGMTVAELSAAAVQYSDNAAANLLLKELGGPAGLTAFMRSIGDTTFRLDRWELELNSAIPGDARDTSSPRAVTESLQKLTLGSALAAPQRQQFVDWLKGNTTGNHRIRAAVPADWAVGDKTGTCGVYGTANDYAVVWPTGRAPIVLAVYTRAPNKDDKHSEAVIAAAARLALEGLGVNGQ
How it was run: as §1

[1] = tested on: P. aeruginosa Ps296 expressing VIM-2; assay: broth microdilution MIC, P. aeruginosa VIM-2; format: cell-based; details: Fixed Mero (meropenem) 4 μg/mL
How it was run: (§2)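 First, strains were grown 3-5 hours in CAMHB; then compound dilutions (32 to 0.25 μg/mL final) received a beta-lactam overlay at 4 μg/mL final. Finally, plates were inoculated per CLSI and incubated 16-20 hours at 37° C.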

[2] = tested on: E. cloacae 144200 expressing Class C P99 AmpC; assay: broth microdilution MIC, E. cloacae P99; format: cell-based; details: Fixed CAZ (ceftazidime) 4 μg/mL
How it was run: as §2

[3] = tested on: K. pneumoniae 156319 expressing KPC-3; assay: broth microdilution MIC, K. pneumoniae KPC-3; format: cell-based; details: Fixed Mero (meropenem) 4 μg/mL
How it was run: as §2

[4] = tested on: S. aureus MSSA-7 producing penicillinase PC-1; assay: broth microdilution MIC, S. aureus PC-1; format: cell-based; details: Fixed Pip (piperacillin) 4 μg/mL
How it was run: as §2

[5] = tested on: K. pneumoniae A-1797 expressing KPC-2 and VIM-4; assay: broth microdilution MIC, K. pneumoniae KPC-2 and VIM-4; format: cell-based; details: Fixed Mero (meropenem) 4 μg/mL
How it was run: as §2

[6] = tested on: E. coli ESBL4 expressing CTX-M-15; assay: broth microdilution MIC, E. coli CTX-M-15; format: cell-based; details: Fixed CAZ (ceftazidime) 4 μg/mL
How it was run: as §2

OXA-1 β-lactamase = molecular target: T4, OXA-1 β-lactamase (Escherichia coli, UniProt P13661); assay: β-lactamase enzyme inhibition, OXA-1; format: biochemical; details: Nitrocefin 100 μM, 486 nm; 15 min at 37° C. preincubation; read-out: IC50 OXA-1 (Class D)
T4 construct: made in house; host or cells: E. coli BL21(DE3)
T4 sequence (P13661 26-276): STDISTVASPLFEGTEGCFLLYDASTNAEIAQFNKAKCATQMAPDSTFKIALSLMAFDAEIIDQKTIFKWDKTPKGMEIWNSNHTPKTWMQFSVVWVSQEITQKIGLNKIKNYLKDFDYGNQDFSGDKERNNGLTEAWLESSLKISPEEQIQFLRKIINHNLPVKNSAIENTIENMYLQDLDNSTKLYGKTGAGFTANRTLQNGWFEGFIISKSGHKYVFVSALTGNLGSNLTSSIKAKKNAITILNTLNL
How it was run: as §1

[7] = molecular target: T5, VIM-2 metallo β-lactamase (Pseudomonas aeruginosa, UniProt Q9K2N0); assay: β-lactamase enzyme inhibition, VIM-2; format: biochemical; details: Nitrocefin 100 μM, 486 nm; 15 min at 37° C. preincubation; read-out: IC50 VIM-2 (Class B)
T5 construct: made in house; host or cells: E. coli BL21(DE3)
How it was run: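 VIM-2 purified by Q sepharose anion exchange (50 mM Hepes pH 7.5, 0-600 mM NaCl gradient, two runs, >90% purity). Enzyme preincubated with inhibitor 15 min at 37° C; nitrocefin 100 μM final, absorbance at 486 nm followed 10 min. IC50 from initial hydrolysis rates versus inhibitor-free controls.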

T1 sequence (P0A3M1 22-286): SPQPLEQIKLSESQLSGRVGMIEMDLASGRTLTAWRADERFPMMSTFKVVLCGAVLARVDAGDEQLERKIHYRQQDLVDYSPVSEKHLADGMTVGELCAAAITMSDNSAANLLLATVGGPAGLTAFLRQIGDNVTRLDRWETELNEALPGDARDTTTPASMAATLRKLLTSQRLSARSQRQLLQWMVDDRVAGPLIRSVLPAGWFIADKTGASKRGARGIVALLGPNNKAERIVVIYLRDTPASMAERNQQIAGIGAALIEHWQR

O=C(CN1CCCC1=O)N[C@H]1Cc2cccc(C(=O)O)c2OB1O [Example 33, (R)-2-Hydroxy-3-[2-(2-oxo-pyrrolidin-1-yl)-acetylamino]-3,4-dihydro-2H-benzo[e][1,2]oxaborinine-8-carboxylic acid]
IC50 (SHV-5 β-lactamase): < 100 nM | IC50 (p99 AmpC β-lactamase): < 100 nM | IC50 (KPC-2 β-lactamase): < 100 nM | MIC of exemplary compounds in presence of fixed β-lactams, P. aerug. Ps296 VIM-2 [1]: C (C represents the MIC in the presence of ≤4 g/mL of a β-lactamase inhibitor) | MIC of exemplary compounds in presence of fixed β-lactams, E. cl. 144200 p99 AmpC [2]: C (C represents the MIC in the presence of ≤4 g/mL of a β-lactamase inhibitor) | MIC of exemplary compounds in presence of fixed β-lactams, K.P. 156319 KPC-3 [3]: C (C represents the MIC in the presence of ≤4 g/mL of a β-lactamase inhibitor) | MIC of exemplary compounds in presence of fixed β-lactams, S. aureus MSSA-7 PC-1 [4]: C (C represents the MIC in the presence of ≤4 g/mL of a β-lactamase inhibitor) | MIC of exemplary compounds in presence of fixed β-lactams, K.P. A-1797 KPC-2 VIM-4 [5]: C (C represents the MIC in the presence of ≤4 g/mL of a β-lactamase inhibitor) | MIC of exemplary compounds in presence of fixed β-lactams, E. coli ESBL4 CTX-M-15 [6]: C (C represents the MIC in the presence of ≤4 g/mL of a β-lactamase inhibitor) | IC50 (OXA-1 β-lactamase): < 100 nM | IC50 [7]: 1000 to 10000 nM

O=C(CCN1C(=O)CCC1=O)N[C@H]1Cc2cccc(C(=O)O)c2OB1O [Example 34, (R)-3-[3-(2,5-Dioxo-pyrrolidin-1-yl)-propionylamino]-2-hydroxy-3,4-dihydro-2H-benzo[e][1,2]oxaborinine-8-carboxylicacid]
IC50 (SHV-5 β-lactamase): < 100 nM | IC50 (p99 AmpC β-lactamase): < 100 nM | IC50 (KPC-2 β-lactamase): < 100 nM | MIC of exemplary compounds in presence of fixed β-lactams, P. aerug. Ps296 VIM-2 [1]: B (B represents the MIC in the presence of between 8 and 32 g/mL of a β-lactamase inhibitor) | MIC of exemplary compounds in presence of fixed β-lactams, E. cl. 144200 p99 AmpC [2]: C (C represents the MIC in the presence of ≤4 g/mL of a β-lactamase inhibitor) | MIC of exemplary compounds in presence of fixed β-lactams, K.P. 156319 KPC-3 [3]: B (B represents the MIC in the presence of between 8 and 32 g/mL of a β-lactamase inhibitor) | MIC of exemplary compounds in presence of fixed β-lactams, S. aureus MSSA-7 PC-1 [4]: C (C represents the MIC in the presence of ≤4 g/mL of a β-lactamase inhibitor) | MIC of exemplary compounds in presence of fixed β-lactams, K.P. A-1797 KPC-2 VIM-4 [5]: B (B represents the MIC in the presence of between 8 and 32 g/mL of a β-lactamase inhibitor) | MIC of exemplary compounds in presence of fixed β-lactams, E. coli ESBL4 CTX-M-15 [6]: C (C represents the MIC in the presence of ≤4 g/mL of a β-lactamase inhibitor) | IC50 (OXA-1 β-lactamase): < 100 nM | IC50 [7]: 1000 to 10000 nM

O=C(/C=C/c1cocn1)N[C@H]1Cc2cccc(C(=O)O)c2OB1O [Example 44, (R)-2-Hydroxy-3-(3-oxazol-4-yl-acryloylamino)-3,4-dihydro-2H-benzo[e][1,2]oxaborinine-8-carboxylicacid]
IC50 (SHV-5 β-lactamase): < 100 nM | IC50 (p99 AmpC β-lactamase): < 100 nM | IC50 (KPC-2 β-lactamase): < 100 nM | MIC of exemplary compounds in presence of fixed β-lactams, P. aerug. Ps296 VIM-2 [1]: C (C represents the MIC in the presence of ≤4 g/mL of a β-lactamase inhibitor) | MIC of exemplary compounds in presence of fixed β-lactams, E. cl. 144200 p99 AmpC [2]: C (C represents the MIC in the presence of ≤4 g/mL of a β-lactamase inhibitor) | MIC of exemplary compounds in presence of fixed β-lactams, K.P. 156319 KPC-3 [3]: C (C represents the MIC in the presence of ≤4 g/mL of a β-lactamase inhibitor) | MIC of exemplary compounds in presence of fixed β-lactams, S. aureus MSSA-7 PC-1 [4]: C (C represents the MIC in the presence of ≤4 g/mL of a β-lactamase inhibitor) | MIC of exemplary compounds in presence of fixed β-lactams, K.P. A-1797 KPC-2 VIM-4 [5]: B (B represents the MIC in the presence of between 8 and 32 g/mL of a β-lactamase inhibitor) | MIC of exemplary compounds in presence of fixed β-lactams, E. coli ESBL4 CTX-M-15 [6]: C (C represents the MIC in the presence of ≤4 g/mL of a β-lactamase inhibitor) | IC50 (OXA-1 β-lactamase): < 100 nM | IC50 [7]: 100 to 1000 nM

O=C(CCc1cocn1)N[C@H]1Cc2cccc(C(=O)O)c2OB1O [Example 45, (R)-2-Hydroxy-3-(3-oxazol-4-yl-propionylamino)-3,4-dihydro-2H-benzo[e][1,2]oxaborinine-8-carboxylic acid]
IC50 (SHV-5 β-lactamase): < 100 nM | IC50 (p99 AmpC β-lactamase): < 100 nM | IC50 (KPC-2 β-lactamase): < 100 nM | MIC of exemplary compounds in presence of fixed β-lactams, P. aerug. Ps296 VIM-2 [1]: C (C represents the MIC in the presence of ≤4 g/mL of a β-lactamase inhibitor) | MIC of exemplary compounds in presence of fixed β-lactams, E. cl. 144200 p99 AmpC [2]: C (C represents the MIC in the presence of ≤4 g/mL of a β-lactamase inhibitor) | MIC of exemplary compounds in presence of fixed β-lactams, K.P. 156319 KPC-3 [3]: C (C represents the MIC in the presence of ≤4 g/mL of a β-lactamase inhibitor) | MIC of exemplary compounds in presence of fixed β-lactams, S. aureus MSSA-7 PC-1 [4]: C (C represents the MIC in the presence of ≤4 g/mL of a β-lactamase inhibitor) | MIC of exemplary compounds in presence of fixed β-lactams, K.P. A-1797 KPC-2 VIM-4 [5]: B (B represents the MIC in the presence of between 8 and 32 g/mL of a β-lactamase inhibitor) | MIC of exemplary compounds in presence of fixed β-lactams, E. coli ESBL4 CTX-M-15 [6]: C (C represents the MIC in the presence of ≤4 g/mL of a β-lactamase inhibitor) | IC50 (OXA-1 β-lactamase): < 100 nM | IC50 [7]: 1000 to 10000 nM

CC(=O)N[C@H]1Cc2cccc(C(=O)O)c2OB1O [Example 61, (R)-3-Acetylamino-2-hydroxy-3,4-dihydro-2H-benzo[e][1,2]oxaborinine-8-carboxylic acid]
IC50 (SHV-5 β-lactamase): 100 to 1000 nM | IC50 (p99 AmpC β-lactamase): < 100 nM | IC50 (KPC-2 β-lactamase): < 100 nM | MIC of exemplary compounds in presence of fixed β-lactams, P. aerug. Ps296 VIM-2 [1]: C (C represents the MIC in the presence of ≤4 g/mL of a β-lactamase inhibitor) | MIC of exemplary compounds in presence of fixed β-lactams, E. cl. 144200 p99 AmpC [2]: C (C represents the MIC in the presence of ≤4 g/mL of a β-lactamase inhibitor) | MIC of exemplary compounds in presence of fixed β-lactams, K.P. 156319 KPC-3 [3]: C (C represents the MIC in the presence of ≤4 g/mL of a β-lactamase inhibitor) | MIC of exemplary compounds in presence of fixed β-lactams, S. aureus MSSA-7 PC-1 [4]: C (C represents the MIC in the presence of ≤4 g/mL of a β-lactamase inhibitor) | MIC of exemplary compounds in presence of fixed β-lactams, K.P. A-1797 KPC-2 VIM-4 [5]: B (B represents the MIC in the presence of between 8 and 32 g/mL of a β-lactamase inhibitor) | MIC of exemplary compounds in presence of fixed β-lactams, E. coli ESBL4 CTX-M-15 [6]: C (C represents the MIC in the presence of ≤4 g/mL of a β-lactamase inhibitor) | IC50 (OXA-1 β-lactamase): 100 to 1000 nM | IC50 [7]: 1000 to 10000 nM

O=C(Cc1ccc2c(c1)CNC2)N[C@H]1Cc2cccc(C(=O)O)c2OB1O [Example 64, (R)-3-(2-2,3-Dihydro-1H-isoindol-5-yl-acetylamino)-2-hydroxy-3,4-dihydro-2H-benzo[e][1,2]oxaborinine-8-carboxylic acid]
IC50 (SHV-5 β-lactamase): < 100 nM | IC50 (p99 AmpC β-lactamase): < 100 nM | IC50 (KPC-2 β-lactamase): < 100 nM | MIC of exemplary compounds in presence of fixed β-lactams, P. aerug. Ps296 VIM-2 [1]: C (C represents the MIC in the presence of ≤4 g/mL of a β-lactamase inhibitor) | MIC of exemplary compounds in presence of fixed β-lactams, E. cl. 144200 p99 AmpC [2]: C (C represents the MIC in the presence of ≤4 g/mL of a β-lactamase inhibitor) | MIC of exemplary compounds in presence of fixed β-lactams, K.P. 156319 KPC-3 [3]: C (C represents the MIC in the presence of ≤4 g/mL of a β-lactamase inhibitor) | MIC of exemplary compounds in presence of fixed β-lactams, S. aureus MSSA-7 PC-1 [4]: C (C represents the MIC in the presence of ≤4 g/mL of a β-lactamase inhibitor) | MIC of exemplary compounds in presence of fixed β-lactams, K.P. A-1797 KPC-2 VIM-4 [5]: B (B represents the MIC in the presence of between 8 and 32 g/mL of a β-lactamase inhibitor) | MIC of exemplary compounds in presence of fixed β-lactams, E. coli ESBL4 CTX-M-15 [6]: C (C represents the MIC in the presence of ≤4 g/mL of a β-lactamase inhibitor) | IC50 (OXA-1 β-lactamase): < 100 nM | IC50 [7]: 100 to 1000 nM
